Source: patent US20220323479A1, “COMPOSITIONS AND METHODS USING ADENOSYLCOBALAMIN” (SOCIETE DES PRODUITS NESTLE S.A., priority 2019, published 2022)

How the values were obtained:
aged rats = experiment: Rotarod muscle performance / locomotor coordination; assay type: in vivo, Male Wistar rats; details: 1 mg/kg s.c. 3 times a week, 5 months, vs control
Description: (§1) Male Wistar rats aged 3 months or 19 months were treated with adenosylcobalamin (Adenosyl-B12) or methylcobalamin (Methyl-B12) at a dose of 1 mg/kg 3 times a week during 5 months by subcutaneous injection. Control animals were injected with equivalent volumes of saline. After 5 months treatment, adult rats were defined as 8 months old rats and old (aged) animals were defined as 24 old rodents.
To determine muscle performance (FIG. 6), locomotor coordination was measured using rotarod device. […] The time of activity on rotarod is measured in seconds. Each animal was recorded 3 times, with a resting period of at least 10 min between each trial.

[1] = test system: oxidative phosphorylation genes in skeletal muscle; experiment: Gene-set enrichment and network analysis of skeletal muscle (tibialis anterior) RNA of treated old rats; assay type: in vivo, Male Wistar rats; details: 1 mg/kg s.c. 3 times a week, 5 months; for network analysis of regulated genes (protein-protein interactions): interaction score >0.9
Description: as §1
Total RNA was extracted from tibialis anterior using the Agencourt RNAdvance Tissue Kit. For Gene-set enrichment analysis and Network analysis, RNA quantity was measured with Ribogreen and RNA quality was checked using the Standard Sensitivity RNA Analysis Kit on a Fragment Analyzer. All cRNA targets were synthesized using the IVT plus kit and fragmented according to the Affymetrix protocol, based on the Eberwine T7 procedure. Briefly, 100 ng of total RNA were used to produce double-stranded cDNA, followed by in vitro transcription, and cRNA labeling with biotin. Gene-set enrichment analysis (GSEA) of skeletal muscle describe the significant pathway differentially expressed (FIG. 5A). For Network analysis (FIG. 5B), nodes with an interaction score >0.9 are represented in different gray levels and aggregated by biological function.

[2] = test system: human skeletal muscle myotubes; experiment: Oxygen consumption rate / ATP-synthase-dependent respiration (Seahorse XF96) in epibatidine-stimulated myotubes; assay type: cell-based; details: myotubes treated 3 h, stimulated with epibatidine 10 μM, oligomycin 2.5 μg/ml; vs control
Description: (§2) To test the effect of adenosyl B12 and methyl B12 in human muscle myotubes, oxygen consumption rate and ATP production were measured in human myotubes, differentiated from primary adult muscle cells (HSMM). HSMM were purchased from Lonza (https://bioscience.lonza.com). HSMM were isolated from the upper arm or leg muscle tissue of normal donors and used after the second passage. HSMM were seeded in 96-well plates at a density of 12000 cells per well in SKM-M medium (ZenBio). Myotubes were differentiated from HSMM by growing the cells in DMEM/F-12 (Gibco) containing 2% horse serum, for 4 days. From the second growing day, the medium was not containing B12.
Oxygen consumption was measured using a XF96 instrument (Seahorse Biosciences, North Billerica, Mass., USA). After differentiation, respiration rates were determined every 7 min at 37° C. Myotubes were stimulated with 10 μM epibatidine. […] ATP synthase-dependent respiration was calculated as the difference in respiration rate before and after the addition of oligomycin.
(§3) For treatment, compounds were directly added to the cell culture or myotubes cultures 3 hours (acute treatment) or 3 days (chronic treatment) before measurements. Custom module analysis based on Excel (Microsoft) and GraphPad Prism 7.02 (GraphPad) software was used for quantification.

[3] = test system: human skeletal muscle myotubes; experiment: Luciferase-based ATP production evoked by epibatidine in myotubes; assay type: cell-based; details: vs control
Description: as §2
ATP measurements were carried out using myotubes infected with the adenovirus (from Sirion biotech) expressing luciferase. Luminescence was measured at the Cytation 3 cell imaging reader (Biotek). Relative changes of ATP were measured 48 h after infection in a luminometer, in standard medium containing 145 mM NaCl, 5 mM KCl, 1 mM MgCl2, 1 mM CaCl2), 10 mM glucose and 10 mM Hepes, pH 7.4. Luciferine (5 μM) was added to promote ATP-dependent reaction and basal luminescence was normalized as 100%. ATP production was stimulated in myotubes by addition of epibatidine.
as §3

C/C1=C2/[N-][C@H]([C@H](CC(N)=O)[C@@]2(C)CCC(=O)NC[C@@H](C)OP(=O)([O-])O[C@H]2[C@@H](O)[C@@H](n3cnc4cc(C)c(C)cc43)O[C@@H]2CO)[C@]2(C)N=C(/C(C)=C3N=C(/C=C4N=C1[C@@H](CCC(N)=O)C\4(C)C)[C@@H](CCC(N)=O)[C@]\3(C)CC(N)=O)[C@@H](CCC(N)=O)[C@]2(C)CC(N)=O.[CH2-][C@H]1O[C@@H](n2cnc3c(N)ncnc32)[C@H](O)[C@@H]1O.[Co] [Adenosyl B12, adenosylcobalamin]
time of activity on rod (aged rats): significantly increased
gene expression signature of oxidative phosphorylation genes (enrichment plot analysis, GSEA) ([1]; Adenosyl-B12 vs Methyl-B12): specifically shows gene expression signature of oxidative phosphorylation genes in skeletal muscle
network analysis of regulated genes (protein-protein interactions) [1]: distinguished several clusters linked to mitochondrial respiratory chain complexes, oxidative phosphorylation and mitochondrial function
ATP-synthase-dependent component of the respiration [2]: increases the ATP-synthase-dependent component of the respiration
epibatine-stimulated ATP production ([3]; acute treatment, 3 h): potentiates epibatine-stimulated ATP production
epibatine-stimulated ATP production ([3]; chronic treatment, 3 days): potentiates epibatine-stimulated ATP production

C/C1=C2/[N-][C@H]([C@H](CC(N)=O)[C@@]2(C)CCC(=O)NC[C@H](C)OP(=O)([O-])O[C@H]2[C@@H](O)[C@@H](n3cnc4cc(C)c(C)cc43)O[C@@H]2CO)[C@]2(C)N=C(/C(C)=C3N=C(/C=C4N=C1[C@@H](CCC(N)=O)C\4(C)C)[C@@H](CCC(N)=O)[C@]\3(C)CC(N)=O)[C@@H](CCC(N)=O)[C@]2(C)CC(N)=O.[CH3-].[Co+3] [methyl B12, methylcobalamin, reference compound]
network analysis of regulated genes (protein-protein interactions) [1]: No network representation of oxidative phosphorylation genes is possible
ATP-synthase-dependent component of the respiration [2]: does not increase the ATP-synthase-dependent component of the respiration
epibatine-stimulated ATP production ([3]; acute treatment, 3 h): not methyl B12 potentiates epibatine-stimulated ATP production
